Results: PubChem BioAssay AID602338 (NMMLSC, 2012)
Activity calls are given as the source filed them. No rule for the calls is given here.

What follows are compounds tested against Botulinum neurotoxin type F (Clostridium botulinum) (UniProt P30996) (assay: Botulinum neurotoxin type F protease inhibition, microsphere cleavage flow cytometry, confirmatory dose response (AID 602338)). Conditions: multiplex microsphere protease cleavage assay.

Row | SMILES | EC50
1 | O=[N+]([O-])c1cccc(-c2cn3nc(-c4ccccc4)c(-c4ccccc4)nc3n2)c1 | > 20 µM (inactive)
2 | CS(=O)(=O)N1N=C(c2ccccc2)CC1c1ccc2c(c1)OCO2 (centres undefined) | > 20 µM (inactive)
3 | CSc1nnc2c(n1)c(C)nn2-c1cccc(C)c1 | > 20 µM (inactive)
4 | Oc1[nH]c(N=C2N=c3ccccc3=N2)c2ccccc12 | > 20 µM (inactive)
5 | COc1ccc(C2CC(c3cccs3)=NN2c2nc(C)c(C(C)=O)s2)cc1OC (centres undefined) | > 20 µM (inactive)
6 | COc1ccc(OC)c(-c2nc3cc4ccccc4cc3nc2-c2ccccc2)c1 | > 20 µM (inactive)
7 | CCS(=O)(=O)N1N=C(c2cccc(NS(C)(=O)=O)c2)CC1c1ccccc1 (centres undefined) | > 20 µM (inactive)
8 | O=C(Nc1ccc2nc(-c3cccs3)c(-c3cccs3)nc2c1)NC1CC1 | > 20 µM (inactive)
9 | Cn1c(=O)c(/C=C/c2ccccc2)nc2ccccc21 | > 20 µM (inactive)
10 | c1ccc(-c2cn3nc(-c4ccccc4)c(-c4ccccc4)nc3n2)cc1 | > 20 µM (inactive)
11 | CCOc1ccc2nc3cc(NCc4ccc(OC)cc4)ccc3c(N)c2c1 | > 20 µM (inactive)
12 | CCSc1nnc(-c2sc3nnc(-c4ccccc4)c(-c4ccccc4)c3c2N)o1 | > 20 µM (inactive)
13 | O=c1c(/C=C(\O)c2ccccc2)nc2ccccc2n1-c1ccccc1 | > 20 µM (inactive)
14 | O=C(Nc1ccc2nc(-c3cccs3)c(-c3cccs3)nc2c1)N1CCOCC1 | > 20 µM (inactive)
